Source: patent publication US8969405B2, “Anticancer compounds and methods of making and using same” (St. Jude Children's Research Hospital, priority 2008, dated 2015)

Key:
[1] = test system: PC-3 prostate cancer cell line; assay: In vitro cytotoxicity analysis (XTT), 72-hour exposure; assay type: cell-based; conditions: Homo sapiens, PC3 cells
Protocol: (§1) Briefly, cell lines were seeded at various cell densities depending on the cell type.
(§2) Tables 1-3 display cytotoxicity data for exemplary compounds following a 72-hour exposure.

[2] = test system: JeKo-1 mantle cell lymphoma cell line; assay: as above; assay type: cell-based; conditions: Homo sapiens, JEKo1 cells
Protocol: as §1, §2

[3] = test system: JVM-2 mantle cell lymphoma cell line; assay: as above; assay type: cell-based; conditions: Homo sapiens, JVM-2 cells
Protocol: as §1, §2

[4] = test system: WiDr colorectal cancer cell line; assay: as above; assay type: cell-based; conditions: Homo sapiens, read-out: Cytotoxicity IC50
Protocol: as §1

[5] = Stability study in buffer solution by HPLC; assay type: physicochemical; conditions: 100 μM in PBS, pH 7.4
Protocol: Stability studies were performed for exemplary compounds 48 and 15. A 100 μM solution of compound 48 was prepared in buffer (PBS, pH 7.4) and warfarin was used as an internal standard. A sample was injected into a HPLC periodically starting at day 0 and ending at about 6 weeks to find out the stability of compound 48 in PBS solution. […] After 6 weeks, 58% of compound 48 remained in the buffer solution.

SMILES	IC50 [1] [nM]	IC50 [2] [nM]	IC50 [3] [nM]	IC50 [4] [nM]	compound remaining in the buffer solution ([5]; after 6 weeks) [%]	degradable products ([5]; after 1 day)	half-life at 100 μM ([5]; PBS buffer, read-out: calculated half life (converted)) [days]
CC(/C=C/[C@@H]1C[C@]2(CO2)CC(C)(C)O1)=C\C[C@H]1CC[C@@H](NC(=O)/C=C\[C@H](C)OC(=O)c2cccn2C)CC1 [Compound 19, (S,Z)-5-((1R,4R)-4-((2E,4E)-5-((3R,5S)-7,7-Dimethyl-1,6-dioxaspiro[2.5]octan-5-yl)-3-methylpenta-2,4-dienyl)cyclohexylamino)-5-oxopent-3-en-2-yl 1-methyl-1H-pyrrole-2-carboxylate]	4300	390	–	–	–	–	–
CC(/C=C/[C@@H]1C[C@]2(CO2)CC(C)(C)O1)=C\C[C@H]1CC[C@@H](NC(=O)/C=C\[C@H](C)OC(=O)N2CCN(C3CCCCCC3)CC2)CC1 [Compound 24, (S,Z)-5-((1R,4R)-4-((2E,4E)-5-((3R,5S)-7,7-dimethyl-1,6-dioxaspiro[2.5]octan-5-yl)-3-methylpenta-2,4-dienyl)cyclohexylamino)-5-oxopent-3-en-2-yl 4-cycloheptylpiperazine-1-carboxylate]	> 500	–	> 1000	–	–	–	–
CC(/C=C/[C@@H]1C[C@]2(CO2)CC(C)(C)O1)=C\C[C@H]1CC[C@@H](NC(=O)/C=C\[C@H](C)OC(=O)c2ccco2)CC1 [Compound 18, (S,Z)-5-((1R,4R)-4-((2E,4E)-5-((3R,5S)-7,7-dimethyl-1,6-dioxaspiro[2.5]octan-5-yl)-3-methylpenta-2,4-dienyl)cyclohexylamino)-5-oxopent-3-en-2-yl furan-2-carboxylate]	3500	140	–	–	–	–	–
CC(/C=C/[C@@H]1C[C@]2(CO2)CC(C)(C)O1)=C\C[C@H]1CC[C@@H](NC(=O)/C=C\[C@H](C)OC(=O)N2CCN(CCO)CC2)CC1 [Compound 27, (S,Z)-5-((1R,4R)-4-((2E,4E)-5-((3R,5S)-7,7-dimethyl-1,6-dioxaspiro[2.5]octan-5-yl)-3-methylpenta-2,4-dienyl)cyclohexylamino)-5-oxopent-3-en-2-yl 4-(2-hydroxyethyl)piperazine-1-carboxylate]	> 2500	> 500	> 500	> 1250	–	–	–
CC(/C=C/[C@H]1OCC[C@@]2(CO2)[C@@H]1O)=C\C[C@H]1CC[C@@H](NC(=O)/C=C\[C@H](C)OC(=O)C(C)C)CC1 [Compound 38, (S,Z)-5-((1S,4R)-4-((2E,4E)-5-((3R,4R,5R)-4-hydroxy-1,6-dioxaspiro[2.5]octan-5-yl)-3-methylpenta-2,4-dienyl)cyclohexylamino)-5-oxopent-3-en-2-yl isobutyrate]	> 10000	> 1000	–	–	–	–	–
CC(/C=C/[C@@H]1C[C@]2(CO2)CC(C)(C)O1)=C\C[C@H]1CC[C@@H](NC(=O)/C=C\[C@H](C)OC(=O)C2CCN(C)CC2)CC1 [Compound 16, (S,Z)-5-((1R,4R)-4-((2E,4E)-5-((3R,5S)-7,7-dimethyl-1,6-dioxaspiro[2.5]octan-5-yl)-3-methylpenta-2,4-dienyl)cyclohexylamino)-5-oxopent-3-en-2-yl 1-methylpiperidine-4-carboxylate]	10000	> 1000	–	–	–	–	–
CC(/C=C/[C@@H]1C[C@](O)(CCl)CC(C)(C)O1)=C\C[C@H]1CC[C@@H](NC(=O)/C=C\[C@H](C)OC(=O)N2CCN(C3CCCCCC3)CC2)CC1 [Compound 28, (S,Z)-5-((1R,4R)-4-((2E,4E)-5-((2S,4R)-4-(chloromethyl)-4-hydroxy-6,6-dimethyltetrahydro-2H-pyran-2-yl)-3-methylpenta-2,4-dienyl)cyclohexylamino)-5-oxopent-3-en-2-yl 4-cycloheptylpiperazine-1-carboxylate]	> 5000	–	> 10000	> 1250	–	–	–
CC(/C=C/[C@@H]1C[C@]2(CO2)CC(C)(C)O1)=C\C[C@H]1CC[C@@H](NC(=O)/C=C\[C@H](C)OC(=O)N2CCN(C)CC2)CC1 [Compound 26, (S,Z)-5-((1R,4R)-4-((2E,4E)-5-((3R,5S)-7,7-dimethyl-1,6-dioxaspiro[2.5]octan-5-yl)-3-methylpenta-2,4-dienyl)cyclohexylamino)-5-oxopent-3-en-2-yl 4-methylpiperazine-1-carboxylate]	> 2500	> 500	> 500	> 500	–	–	–
COc1cccc(N2CCN(C(=O)O[C@@H](C)/C=C\C(=O)N[C@H]3CC[C@@H](C/C=C(C)/C=C/[C@@H]4C[C@]5(CO5)CC(C)(C)O4)CC3)CC2)c1 [Compound 25, (S,Z)-5-((1R,4R)-4-((2E,4E)-5-((3R,5S)-7,7-dimethyl-1,6-dioxaspiro[2.5]octan-5-yl)-3-methylpenta-2,4-dienyl)cyclohexylamino)-5-oxopent-3-en-2-yl 4-(3-methoxyphenyl)piperazine-1-carboxylate]	> 2500	> 500	> 500	> 1250	–	–	–
CC(/C=C/[C@@H]1C[C@]2(CO2)CC(C)(C)O1)=C\C[C@H]1CC[C@@H](NC(=O)/C=C\[C@H](C)OC(=O)c2cccnc2)CC1 [Compound 21, (S,Z)-5-((1R,4R)-4-((2E,4E)-5-((3R,5S)-7,7-dimethyl-1,6-dioxaspiro[2.5]octan-5-yl)-3-methylpenta-2,4-dienyl)cyclohexylamino)-5-oxopent-3-en-2-yl nicotinate]	8100	160	–	–	–	–	–
CC(=O)O[C@@H](C)CCC(=O)N[C@H]1CO[C@@H](C/C=C(C)/C=C/[C@@H]2C[C@]3(CO3)CC(C)(C)O2)OC1 [Compound 53, (S)-5-((2R,5R)-2-((2E,4E)-5-((3R,5S)-7,7-dimethyl-1,6-dioxaspiro[2.5]octan-5-yl)-3-methylpenta-2,4-dienyl)-1,3-dioxan-5-ylamino)-5-oxopentan-2-yl acetate]	> 10000	> 1000	–	–	–	–	–
CC(/C=C/[C@@H]1C[C@]2(CO2)CC(C)(C)O1)=C\C[C@H]1OC[C@@H](NC(=O)/C=C\[C@H](C)OC(=O)C(C)C)CO1 [Compound 48, (S,Z)-5-((2R,5R)-2-((2E,4E)-5-((3R,5S)-7,7-dimethyl-1,6-dioxaspiro[2.5]octan-5-yl)-3-methylpenta-2,4-dienyl)-1,3-dioxan-5-ylamino)-5-oxopent-3-en-2-yl isobutyrate]	5200	170	–	–	58	No degradable products were found	50.4
CC(/C=C/[C@@H]1C[C@]2(CO2)CC(C)(C)O1)=C\C[C@H]1CC[C@@H](NC(=O)/C=C\[C@H](C)OC(=O)c2ccccc2)CC1 [Compound 20, (S,Z)-5-((1R,4R)-4-((2E,4E)-5-((3R,5S)-7,7-dimethyl-1,6-dioxaspiro[2.5]octan-5-yl)-3-methylpenta-2,4-dienyl)cyclohexylamino)-5-oxopent-3-en-2-yl benzoate]	4900	410	–	–	–	–	–
CC(/C=C/[C@@H]1C[C@]2(CO2)CC(C)(C)O1)=C\C[C@H]1CC[C@@H](NC(=O)/C=C\[C@H](C)OC(=O)C2CCOCC2)CC1 [Compound 17, (S,Z)-5-((1R,4R)-4-((2E,4E)-5-((3R,5S)-7,7-dimethyl-1,6-dioxaspiro[2.5]octan-5-yl)-3-methylpenta-2,4-dienyl)cyclohexylamino)-5-oxopent-3-en-2-yl tetrahydro-2H-pyran-4-carboxylate]	1970	440	–	–	–	–	–
CC(/C=C/[C@@H]1C[C@]2(CO2)CC(C)(C)O1)=C\C[C@H]1CC[C@@H](NC(=O)/C=C\[C@H](C)OC(=O)C2CCN(c3ccnc(C(F)(F)F)n3)CC2)CC1 [Compound 22, (S,Z)-5-((1R,4R)-4-((2E,4E)-5-((3R,5S)-7,7-dimethyl-1,6-dioxaspiro[2.5]octan-5-yl)-3-methylpenta-2,4-dienyl)cyclohexylamino)-5-oxopent-3-en-2-yl 1-(2-(trifluoromethyl)pyrimidin-4-yl)piperidine-4-carboxylate]	> 10000	> 1000	–	–	–	–	–
CC(/C=C/[C@@H]1C[C@]2(CO2)CC(C)(C)O1)=C\C[C@H]1CC[C@@H](NC(=O)/C=C\[C@H](C)OC(=O)C(C)(C)C)CC1 [Compound 23, (S,Z)-5-((1R,4R)-4-((2E,4E)-5-((3R,5S)-7,7-dimethyl-1,6-dioxaspiro[2.5]octan-5-yl)-3-methylpenta-2,4-dienyl)cyclohexylamino)-5-oxopent-3-en-2-yl pivalate]	760	30	–	–	–	–	–
CC(/C=C/[C@@H]1C[C@]2(CO2)CC(C)(C)O1)=C\C[C@H]1OC[C@@H](NC(=O)/C=C\[C@H](C)OC(=O)C(C)(C)C)CO1 [Compound 49, (S,Z)-5-((2R,5R)-2-((2E,4E)-5-((3R,5S)-7,7-dimethyl-1,6-dioxaspiro[2.5]octan-5-yl)-3-methylpenta-2,4-dienyl)-1,3-dioxan-5-ylamino)-5-oxopent-3-en-2-yl pivalate]	1180	340	–	–	–	–	–
